{
  "source": "patent US20130253015A1",
  "about": "“Cyclodextrin-Based Microemulsions, and Dermatological Uses Thereof” (PRECISION DERMATOLOGY, INC., priority 2012, published 2013)",
  "key": {"[1]": {"assay": "Solubility/dispersibility of retinol in Labrasol-HPGCD-water microemulsion systems", "format": "physicochemical", "source_text": "Drug used: 1. Solid Retinol (98%) from Sigma, 2.\nCyclodextrin used: hydroxypropyl-X-cyclodextrin (X=alpha, beta, or gamma)."}, "[2]": {"details": "cited from earlier work"}},
  "data": [
    {"smiles": "CC1=C(/C=C/C(C)=C/C=C/C(C)=C/CO)C(C)(C)CCC1", "note": "[solid retinol, Retinol]", "values": [
      {"measurement": "amount of retinol that can be incorporated into cyclodextrin-based microemulsions", "setting": "[1]; cyclodextrin-based microemulsions of the invention", "value": "greater than 1.0 wt %"},
      {"measurement": "miscibility in Labrasol-HPGCD-water microemulsion system", "setting": "[1]; final retinol concentration 1.2%, clear transparent system (FIG. 4(b), 4(c))", "value": "complete miscibility"},
      {"measurement": "miscibility in water", "setting": "[2]", "value": "immiscible in water"}
    ]}
  ]
}
